# Source: PubChem BioAssay AID463206 (Broad Institute, 2010)
# Active and inactive are the calls of the source.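 Rule for the calls: active = caspase luminescence falls with dose and the half-maximal concentration AC50 from the fitted curve is at or below a set limit; inconclusive = flat fit at 30 to 70% signal loss, or invalid fit; inactive = AC50 above the limit, or signal rises instead.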
# Tested on: INS-1E cytokine-induced caspase-3/7, Caspase-Glo luminescence, 48 h
# Test: suppression of cytokine-driven beta-cell apoptosis – INS-1E rat cells, luminescence, orthogonal assay for beta-cell apoptosis protection project, dose response (AID 463206)
row,SMILES,AC50
1,CCN(CC)S(=O)(=O)c1cccc(NC(=O)Nc2cccc(C(F)(F)F)c2)c1,> 26 µM (inactive)
2,Cc1ccc(-c2cc(-c3ccccc3)cc(-c3ccccc3)[n+]2-c2ccccc2)cc1,> 26 µM (inactive)
3,C(#Cc1ccccc1)C[N+]1(CC#Cc2cccc3ccccc23)CCCC1,> 26 µM (inactive)
4,Cc1ccc(NC(=O)c2nc(S(=O)(=O)Cc3ccccc3)ncc2Cl)cc1,> 26 µM (inactive)
5,O=S(=O)(c1ccc2c(c1)OCCO2)N1CCN(c2ncnc3sccc23)CC1,> 26 µM (inactive)
6,COc1ccccc1N1CCN(c2ncc(C(=O)N3CCN(c4cccc(Cl)c4)CC3)c3ccccc23)CC1,> 26 µM (inactive)
7,Fc1cc(F)c2nc(Nc3nc4c(F)cccc4s3)sc2c1,> 26 µM (inactive)
8,COc1ccc(CN(C)c2ccc(S(=O)(=O)N3CCN(C)CC3)cc2[N+](=O)[O-])cc1OC,> 26 µM (inactive)
9,Cc1ccc(O)c(NC(=S)NC(=O)c2ccc(-c3ccc(Cl)cc3)o2)c1,> 26 µM (inactive)
10,O=C(Nc1ccc(OC(F)F)c(Cl)c1)C(c1ccccc1)c1ccccc1,> 26 µM (inactive)
11,Cc1ccc(-c2c[n+](Cc3ccc(Cl)cc3)c3n2CCC3)cc1,> 26 µM (inactive)
12,CCSc1ccc(NC(=O)c2cccnc2)cc1,> 26 µM (inactive)
13,CC(=O)c1ccc(OCc2cc(C(=O)N3CCCCC3c3cccnc3)no2)cc1 (centres undefined),> 26 µM (inactive)
14,Cc1cccc(N=Nc2ccc(O)c3ncccc23)c1,> 26 µM (inactive)
15,Oc1ccc(N=Nc2nccs2)c(O)c1,> 26 µM (inactive)
16,CCCCC(=O)NC(c1ccccc1Cl)c1ccc2cccnc2c1O (centres undefined),> 26 µM (inactive)
17,CCN(CC)c1ccc(N=Cc2ccccc2[N+](=O)[O-])cc1,> 26 µM (inactive)
18,COc1cc(Br)cc(/C=N/NC(=O)Cc2ccc(C(F)(F)F)cc2[N+](=O)[O-])c1O,> 26 µM (inactive)
19,CCOC(=O)c1cnc(-n2nc(C)cc2C)nc1NC(C)c1ccccc1 (centres undefined),> 12 µM (inactive)
20,CCCCSc1ccc(NC(=O)c2cccnc2)cc1,> 26 µM (inactive)
21,O=C(Cc1ccc([N+](=O)[O-])cc1)Nc1cccnc1,> 26 µM (inactive)
22,Cc1ccccc1-c1cc(C(=O)Nc2sc(C)c(C)c2C(N)=O)c2ccccc2n1,> 26 µM (inactive)
23,C/C(=N\Nc1nc(C)cc(-c2ccccc2)n1)c1ccc(F)cc1,> 26 µM (inactive)
24,COc1ccc(C(CCNCc2ccc(OC(C)C)cc2)c2ccccc2OC)cc1 (centres undefined),> 26 µM (inactive)

row,SMILES,AC50
1,O=C(N/N=C/c1cc(Br)cc(Br)c1O)c1ccncc1,> 26 µM (inactive)
2,CCOC(=O)[C@@H]1[C@H]2COc3cc(OC)ccc3[C@H]2N2C(=O)N(c3ccc(C(F)(F)F)cc3)C(=O)[C@]12C,> 26 µM (inactive)
3,CCN1CCN(Cc2ccc(NC(=O)c3cc(NC(=O)C(=O)c4c[nH]c5ccccc45)cc(OC)c3)cc2C(F)(F)F)CC1,> 26 µM (inactive)
4,O=S(=O)(NCc1ccncc1)c1ccc(Br)s1,> 26 µM (inactive)
5,COc1ccc(/C=C2\CN(Cc3ccccc3)C/C(=C\c3ccc(OC)c(O)c3)C2=O)cc1O,> 26 µM (inactive)
6,CNc1ccc2oc(C[C@H]3O[C@@]4(CC[C@H]3C)O[C@H]([C@H](C)C(=O)c3ccc[nH]3)[C@H](C)C[C@H]4C)nc2c1C(=O)O,> 26 µM (inactive)
7,O=[N+]([O-])c1cccc(-c2cn3nc(-c4ccccc4)c(-c4ccccc4)nc3n2)c1,> 26 µM (inactive)
8,O=[N+]([O-])c1cc(/C=N/Nc2nc3ccccc3[nH]2)c(O)cc1O,> 26 µM (inactive)
9,CC(=O)NC(c1cc(Cl)c2cccnc2c1O)C(C)C (centres undefined),> 26 µM (inactive)
10,O=C(N/N=C/c1ccc([N+](=O)[O-])o1)c1cc2ccccc2o1,> 26 µM (inactive)
11,C1CCC(C(CC2CCCCN2)C2CCCCC2)CC1 (centres undefined),> 26 µM (inactive)
12,C/C(=N\Nc1nc2ccccc2[nH]1)c1ccccn1,> 26 µM (inactive)
13,COc1ccc(N(C(=O)CCl)C(C(=O)NCCc2ccccc2)c2cccs2)cc1Cl (centres undefined),> 26 µM (inactive)
14,N/C(=N\NC(=O)c1sccc1OCc1ccc(Cl)cc1Cl)c1ccccn1,> 26 µM (inactive)
15,Cc1ccc2nc(C)c(CN3CCN(c4ccc([N+](=O)[O-])cc4Cl)CC3)n2c1,> 26 µM (inactive)
16,N=c1c2c(n(Cc3ccc(Cl)c(Cl)c3)c3c1CCC3)CCCC2,> 26 µM (inactive)
17,CSc1ccc(S(=O)(=O)Nc2ccc(N3CCOCC3)c(Cl)c2)cc1,> 26 µM (inactive)
18,CCC(=O)NC(c1cc(Cl)c2cccnc2c1O)C(C)C (centres undefined),> 26 µM (inactive)
19,Cc1sc2ncnc(NCC3COc4ccccc4O3)c2c1C (centres undefined),> 26 µM (inactive)
20,CN1/C(=C\C(=S)Nc2ccccc2)C(C)(C)c2ccccc21,> 26 µM (inactive)
21,O=[N+]([O-])c1ccc(NC(=S)NCCc2ccc(Cl)cc2)cc1,> 26 µM (inactive)
22,C=C[C@H](CC(C)C)N(Cc1ccccc1)S(=O)(=O)N(Cc1ccccc1)[C@@H](C=C)CC(C)C,> 26 µM (inactive)
23,O=S(=O)(c1ccc(F)c(F)c1F)N1CCN(c2ncnc3sccc23)CC1,> 26 µM (inactive)
24,NC(=S)N/N=C/c1ccccc1O,> 26 µM (inactive)

row,SMILES,AC50
1,CCn1c(SCC(=O)Nc2ccc(OC)cc2)nc2nc3c(cc2c1=O)CCCC3,> 26 µM (inactive)
2,CC(=O)NC(c1ccco1)c1cc(F)c2cccnc2c1O (centres undefined),> 26 µM (inactive)
3,CCCC12C(=O)C(C)(C(c3ccccc3)=C1c1ccccc1)C1C(=O)N(c3ccc(C)cc3)C(=O)C12 (centres undefined),> 26 µM (inactive)
4,CC(=O)Oc1ccc(N(C(C)=O)S(=O)(=O)c2cccs2)c2ccccc12,> 26 µM (inactive)
5,CCN(CC)S(=O)(=O)c1cccc(NC(=O)CNc2cccc(S(=O)(=O)N3CCCC3)c2)c1,> 26 µM (inactive)
6,C/C(=N\Nc1nc(C)cc(-c2ccccc2)n1)c1ccccc1,> 26 µM (inactive)
7,Cc1cc(C)n(CCC(=O)N/N=C/c2c(O)ccc3ccccc23)n1,> 26 µM (inactive)
8,C/C(=N\NC(=O)c1ccoc1C)c1ccccc1O,> 26 µM (inactive)
9,CCOc1ccc(-n2c(O)c(/C=N/Nc3nc(C)cc(C)n3)c3ccccc3c2=O)cc1,> 26 µM (inactive)
10,CC(C)C[C@H]1CN=C(Nc2ccccc2)N1CCc1ccc(F)cc1,> 12 µM (inactive)
11,COc1ccccc1NCC(=O)N/N=C/c1c(O)ccc2ccccc12,> 26 µM (inactive)
12,O=C(Nc1cccc([N+](=O)[O-])c1)c1cc2ccccc2cc1O,> 26 µM (inactive)
13,CC(C)(C)c1cc(NCCCn2ccnc2)n2ncc(-c3ccccc3)c2n1,> 26 µM (inactive)
14,O=C(Nc1ccc(Cl)cc1)Nc1nnc(-c2ccncc2)s1,> 26 µM (inactive)
15,O=C(NC1(Cc2ccccc2)CCN(CCCc2ccccc2)C1=O)c1ccccc1 (centres undefined),> 26 µM (inactive)
16,C=CCn1c(=NC(=O)c2cc(-c3cccs3)nc3ccccc23)sc2cc(S(N)(=O)=O)ccc21,> 26 µM (inactive)
17,O=C(NC(c1cccnc1)C(F)(F)F)c1cc(COc2ccc3c(c2)CCCC3)on1 (centres undefined),> 26 µM (inactive)
18,Cc1cc(Nc2cccc(Cl)c2)nc(NCc2ccccc2)n1,> 26 µM (inactive)
19,Cc1nnsc1-c1onc(C)c1C(=O)Nc1cc(Cl)cc(Cl)c1,> 26 µM (inactive)
20,NNc1ncnc2scc(-c3ccc(Cl)cc3)c12,> 26 µM (inactive)
21,c1ccc(CNc2c(-c3cccc(SC4CCCCC4)c3)nc3ccccn23)cc1,> 26 µM (inactive)
22,O=C(CN1CC[n+]2c(-c3cccs3)csc21)c1ccc(-c2ccccc2)cc1,> 26 µM (inactive)
23,COc1cccc(CN(C)C(=O)c2cc(COc3ccc4ncccc4c3)on2)c1,> 26 µM (inactive)
24,O=C(c1cc(-c2cccc(Cl)c2)nc2ccccc12)N1CCN(c2ccccn2)CC1,> 26 µM (inactive)

row,SMILES,AC50
1,COc1ccc(CN2CCN(CCSc3ccc(C)cc3)CC2)c(OC)c1OC,> 26 µM (inactive)
2,CCOc1ccc(-n2c(-c3ccccc3)c[n+]3c2CCC3)cc1,> 26 µM (inactive)
3,COc1ccc(Cn2c(SCc3cc(C)ccc3C)nc3cc(OC)c(OC)cc3c2=N)cc1,> 26 µM (inactive)
4,O=C(COc1ccc(Br)cc1)N1CCN(Cc2c[nH]c3ccccc23)CC1,> 26 µM (inactive)
5,COc1ccc(C)cc1Nc1n[n+](-c2ccccc2)c(-c2ccc(OC)c(OC)c2OC)s1,> 26 µM (inactive)
6,Cc1ccc(C(=O)Nc2nc(-c3ccccn3)cs2)cc1S(=O)(=O)N1CCOCC1,> 26 µM (inactive)
7,Cc1cc(C)c2sc(NNC(=O)c3ccc(S(=O)(=O)N4CCc5ccccc5C4)cc3)nc2c1,> 26 µM (inactive)
8,O=C(Oc1c(Cl)cc(Cl)c2cccnc12)c1cccs1,> 12 µM (inactive)
9,CCN(CC)c1ccc(/C=N/NC(=O)c2nnn(-c3nonc3N)c2C(C)C)c(O)c1,> 26 µM (inactive)
10,COC(=O)c1ccc2[nH]c3cccc(/C(=C/c4ccccc4)c4ccccc4)c3c2c1,> 26 µM (inactive)
11,N=c1c2c(-c3ccccc3)c(-c3ccccc3)n(Cc3ccco3)c2ncn1CCCN1CCOCC1,16.7 µM
12,CN(C)S(=O)(=O)c1cccc(NC(=S)N/N=C/c2cc(Br)ccc2O)c1,> 26 µM (inactive)
13,CN(C)CCCNc1c2ccccc2nc2ccccc12,> 26 µM (inactive)
14,Cc1ccc(Nc2nc(NCc3ccco3)c3ccccc3n2)cc1,> 12 µM (inactive)
15,CCC(C)(C)c1ccc(OCCCC[n+]2cccc(C)c2C)c(C(C)(C)CC)c1,> 26 µM (inactive)
16,COc1cc(SC#N)ccc1N=Cc1c(C)[nH]n(-c2ccc(C)c(C)c2)c1=O,> 26 µM (inactive)
17,Cc1ccccc1CS(=O)(=O)c1nnc([C@H](Cc2ccccc2)NC(=O)OC(C)(C)C)o1,> 26 µM (inactive)
18,O=[N+]([O-])c1ccc(-n2cnc3ccccc32)c([N+](=O)[O-])c1,> 12 µM (inactive)
19,O=C(N/N=C/c1ccccc1O)/C(=C/c1ccccc1)CCO,> 26 µM (inactive)
20,O=[N+]([O-])c1cccc2c(N3CCCC3)ccnc12,> 26 µM (inactive)
21,Cc1cc(O)c2c(c1)C(=O)C13C(=C2O)C(=O)[C@H]2[C@@H](O)[C@@H]1[C@H]1[C@H](O)[C@@H]3C(=O)C3=C(O)c4c(O)cc(C)cc4C(=O)C312 (some centres undefined),21.6 µM
22,Cc1cc(C)nc(SCc2ccc(C(=O)N/N=C/c3cccc(O)c3O)cc2)n1,> 26 µM (inactive)
